Reference: ChEMBL document CHEMBL1141730, “Destruxin-A4 chlorohydrin, a novel destruxin from fungus OS-F68576: isolation, structure determination, and biological activity as an inducer of erythropoietin” (1998)
Starred links: 1 amine or outer side, 2 acyl side, 3 side chain; linkers in the order of their positions; H or OH if unused. Non-standard residues stand in square brackets, D forms with d. Residues, ends and D or L forms follow the SMILES beside them. Pentanoyl(2-O,4-OH,5-Cl) = O=C(O)C(O)CC(O)CCl; dLac(3-vinyl) = C=CC[C@@H](O)C(=O)O; NMeI = CC[C@H](C)[C@H](NC)C(=O)O; X1 = C=CC[C@H](O[*:1])C(=O)[*:2]; Hica(2S) = CC(C)C[C@H](O)C(=O)O; dHica = CC(C)C[C@@H](O)C(=O)O; NMeV = CN[C@H](C(=O)O)C(C)C; NMeA = CN[C@@H](C)C(=O)O; βAla = NCCC(=O)O

How the values were obtained:
Hep 3B2 [1] = assay: Induction of erythropoietin gene expression in human Hep3B cells over expressing human EPO assessed as maximal transcription induction ratio at 20 uM by luciferase reporter gene assay; type: functional
Hep 3B2 [2] = assay: Cytotoxicity against human Hep3B cells at =< 20 uM; type: functional, cell-based
Hep 3B2 [3] = assay: Induction of erythropoietin gene expression in human Hep3B cells over expressing human EPO assessed as drug level required to produce 5 fold transcription induction ratio; type: functional
Hep 3B2 [4] = assay: Induction of erythropoietin gene expression in human Hep3B cells over expressing human EPO assessed as maximal transcription induction ratio at 1.3 uM by luciferase reporter gene assay; type: functional
Hep 3B2 [5] = assay: Induction of erythropoietin secretion in human Hep3B cells expressing human EPO at 10 uM by ELISA; type: functional
Hep 3B2 [6] = assay: Induction of erythropoietin gene expression in human Hep3B cells over expressing human EPO assessed as maximal transcription induction ratio at 10 uM by luciferase reporter gene assay; type: functional
Hep 3B2 [7] = assay: Induction of erythropoietin gene expression in human Hep3B cells over expressing human EPO assessed as maximal transcription induction ratio at 2.1 uM by luciferase reporter gene assay; type: functional
Hep 3B2 [8] = assay: Induction of erythropoietin gene expression in human Hep3B cells over expressing human EPO assessed as maximal transcription induction ratio at 5 uM by luciferase reporter gene assay; type: functional

Row | Compound | Ratio (Hep 3B2 [1]) | Activity (Hep 3B2 [2]) | Activity (Hep 3B2 [3]) | Ratio (Hep 3B2 [4]) | Activity (Hep 3B2 [5]) | Ratio (Hep 3B2 [6]) | Ratio (Hep 3B2 [7]) | Ratio (Hep 3B2 [8])
1 | CC[C@H](C)[C@H](NC(=O)[C@@H]1CCCN1C(O)CC(O)CCl)C(=O)N(C)[C@H](C(=O)N(C)[C@@H](C)C(=O)NCCC(=O)O)[C@@H](C)CC (stereo partly specified) | 1 | – | – | – | – | – | – | –
2 | CC[C@H](C)[C@@H]1NC(=O)[C@@H]2CCCN2C(=O)C(CC(O)CCl)OC(=O)CCNC(=O)[C@H](C)N(C)C(=O)[C@H]([C@@H](C)CC)N(C)C1=O (stereo partly specified) (cyclo(I[NMeI][NMeA][βAla][Pentanoyl(2-O,4-OH,5-Cl)]P)) | – | Not toxic | 0.2 µM | 28 | 36 mU/ml | – | – | –
3 | CC[C@H](C)[C@@H]1NC(=O)[C@@H]2CCCN2C(=O)[C@@H](CC(C)C)OC(=O)CCNC(=O)[C@H](C)N(C)C(=O)[C@H](C(C)C)N(C)C1=O (cyclo(I[NMeV][NMeA][βAla][dHica]P)) | – | Not toxic | 2 µM | – | 35 mU/ml | 19 | – | –
4 | C=CC[C@H]1OC(=O)CCNC(=O)[C@H](C)N(C)C(=O)[C@H](C(C)C)N(C)C(=O)[C@H]([C@@H](C)CC)NC(=O)[C@@H]2CCCN2C1=O (cyclo(I[NMeV][NMeA][βAla][dLac(3-vinyl)]P)) | – | Not toxic | 0.4 µM | – | 37 mU/ml | – | 28 | –
5 | C=CC[C@@H]1OC(=O)CCNC(=O)[C@H](C)N(C)C(=O)[C@H]([C@@H](C)CC)N(C)C(=O)[C@H]([C@@H](C)CC)NC(=O)[C@@H]2CCCN2C1=O [destruxin A4] (cyclo(I[NMeI][NMeA][βAla][X1]P)) | – | Not toxic | 0.9 µM | – | 35 mU/ml | – | – | 23
6 | CC[C@H](C)[C@@H]1NC(=O)[C@@H]2CCCN2C(=O)[C@H](CC(C)C)OC(=O)CCNC(=O)[C@H](C)N(C)C(=O)[C@H]([C@@H](C)CC)N(C)C1=O [homodestruxin B] (cyclo([Hica(2S)]PI[NMeI][NMeA][βAla])) | – | Not toxic | 0.8 µM | – | 36 mU/ml | – | – | 18
